# Reference: patent publication US20130324522A1, “INSECT ODORANT RECEPTOR ANTAGONISTS” (THE ROCKEFELLER UNIVERSITY, priority 2010, published 2013)
# Read-outs that look alike come from different tables or passages of the source.
# Key:
# Assay type in all cases: cell-based
# OR10/OR7 = OR10/OR7 (Anopheles gambiae, UniProt B5U0U7+Q7QCC7); assay: Ca2+-imaging of stable HEK293T cell line OR10/OR7; conditions: for inhibition at 4 µM: HEK-293T, read-out: Percent Inhibition OR10 OR7
# Procedure: Stable cell lines OR1/OR7, OR2/OR7, OR8/OR7, OR10/OR7, OR28/OR7 and TRPM8 were generated from HEK293T cells. HEK293T-based cell lines were cultured in DMEM supplemented with these additional antibiotics: 6 μg/mL blasticidin and 1 μg/mL puromycin, with the exception of the TRPM8 cell lines, which was cultured in DMEM supplemented with 1 μg/mL puromycin.
# After one day of incubation, the transfected cells were transferred into 10 cm dishes with DMEM containing antibiotics as follows: • 0.5 μg/mL of blasticidin for OR1/OR7, OR2/OR7, OR8/OR7, OR10/OR7, OR28/OR7 • 0.2 μg/mL of puromycin for TRPM8.
# (§1) Stable cell lines were cultured in 10 cm dishes, and confluent cells (70-80%) were trypsinized. 10,000 cells/20 μL were transferred into each well of 384-well plates coated with poly-D-lysine, and cultured for 2 days. For Flip-In T-Rex cells (cell lines expressing Or47a/Or83b and 5HT3), 5 μL of tetracycline (5 μg/mL) were added 1 day before the assay. 20 μL of Ca-4 dye was loaded into each well for 1.5 hr at room temperature in the dark, and the dye-loaded plates were subjected to Ca^2+-imaging using a Hamamatsu FDSS6000 real time fluorescence plate reader. Odorant solutions (9× final concentration) were prepared by dissolving 1M stock solutions into Hank's Buffered Salt Solution (HBSS), and 30 μL of odor solution was transferred to each well in 384-well plates.
# (§2) Compounds ([…] in DMSO) were stored in 384-well plates, and last two columns (32 wells total) contained only DMSO. 200 nL of small compounds were transferred into the odorant plates before the assay using the Perkin-Elmer Janus workstation. The odorant plates were spun down to remove air bubbles, and placed on the FDSS6000 plate loader, and 5 μL of odorant solution was applied to the cell plate on the FDSS6000. Ca^2+ increase was monitored with fluorescence at 525 nm by excitation at 485 nm.
# mOREG = target: T1, mOREG (Mus musculus, UniProt Q920P2); assay: Ca2+-imaging, control receptor mOREG; conditions: for inhibition at 4 µM: read-out: Percent Inhibition mOREG
# T1 sequence (Q920P2 1-313): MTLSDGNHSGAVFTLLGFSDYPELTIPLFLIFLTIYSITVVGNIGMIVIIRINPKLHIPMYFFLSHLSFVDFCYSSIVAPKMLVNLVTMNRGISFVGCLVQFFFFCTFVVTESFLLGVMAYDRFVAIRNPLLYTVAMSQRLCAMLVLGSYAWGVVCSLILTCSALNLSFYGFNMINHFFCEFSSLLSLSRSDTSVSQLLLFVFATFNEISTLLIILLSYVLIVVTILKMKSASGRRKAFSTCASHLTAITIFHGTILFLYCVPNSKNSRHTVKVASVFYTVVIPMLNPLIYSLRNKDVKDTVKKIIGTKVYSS
# Procedure: as §1, with “plates. The last two columns of the plate (32 wells total) were used as control wells as follows: • negative control with HBSS buffer (16 wells) • positive control with ligands (16 wells).” for “plates.”
# as §2
# [1] = target: T2, serotonin receptor (5HT3) (Mus musculus, UniProt P23979); assay: Ca2+-imaging of stable Flip-In T-Rex cell line 5HT3; conditions: for inhibition at 4 µM: read-out: Percent Inhibition 5HT3
# T2 construct: Full-length cDNAs for mosquito (Anopheles gambiae) odorant receptor; expressed in transfected cells
# T2 sequence (P23979 24-489): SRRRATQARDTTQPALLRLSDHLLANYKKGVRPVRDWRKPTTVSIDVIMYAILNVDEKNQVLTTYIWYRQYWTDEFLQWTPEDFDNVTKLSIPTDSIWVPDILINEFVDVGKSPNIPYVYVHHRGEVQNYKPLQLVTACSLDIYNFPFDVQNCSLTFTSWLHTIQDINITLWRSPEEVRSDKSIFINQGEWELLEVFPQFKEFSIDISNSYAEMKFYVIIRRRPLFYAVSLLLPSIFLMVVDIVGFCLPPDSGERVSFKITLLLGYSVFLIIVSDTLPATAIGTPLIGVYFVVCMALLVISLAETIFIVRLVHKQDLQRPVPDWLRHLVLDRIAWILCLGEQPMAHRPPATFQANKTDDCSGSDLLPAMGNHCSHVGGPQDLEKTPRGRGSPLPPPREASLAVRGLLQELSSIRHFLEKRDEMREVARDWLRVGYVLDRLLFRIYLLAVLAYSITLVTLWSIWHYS
# Procedure: Full-length cDNAs for mosquito (Anopheles gambiae) odorant receptor (OR1, OR2, OR7, OR8, OR28), and fly (Drosophila melanogaster) odorant receptor (Or47a, Or83b), mouse TRP channel (TRPM8), and mouse serotonin receptor (5HT3) were obtained and subcloned into mammalian expression vectors. The following mammalian expression vectors were used:
# Stable cell lines Or47a/Or83b and 5HT3 were generated from Flip-In T-Rex cells. Flip-In T-Rex-based cell lines were cultured in DMEM supplemented with these additional antibiotics: 6 μg/mL blasticidin and 100 μg/mL hygromycin.
# Cells were trypsinized and split into 35 mm dishes 1 day before transfection. Confluent cells (60-70%) in 35 mm dishes were co-transfected with 1 μg of Or47a/Or83b plasmid in pcDNA5/FRT/TO/IRES plus the pOG44 plasmid or 1 μg of 5HT3 plasmid in pcDNA5/FRT/TO plus the pOG44 plasmid using lipofectamine 2000. Co-transfection of pOG44 and pcDNA5/FRT/TO/IRES or pcDNA5/FRT/TO allows expression of Flp recombinase and integration of the pcDNA5 plasmid into the genome via the FRT site. After one day of incubation, the transfected cells were transferred into 10 cm dishes with DMEM containing antibiotics: 20 μg/mL of hygromycin and 6 μg/mL of blasticidin. The concentration of Hygromycin was increased to 100 μg/mL when the population of cells became 30-40% confluent. The cells were cultured by changing medium every two days until cell clumps appeared. The clumps were picked and transferred into 96 well plates with DMEM containing 100 μg/mL of Hygromycin and 6 μg/mL of blasticidin. The cells were grown and transferred to 24 well plates, and ligand-evoked calcium increases were tested using the Hamamatsu FDSS6000 real time fluorescence plate reader.
# as §1, §2
# Chain of OR10/OR7 (Q7QCC7 whole entry): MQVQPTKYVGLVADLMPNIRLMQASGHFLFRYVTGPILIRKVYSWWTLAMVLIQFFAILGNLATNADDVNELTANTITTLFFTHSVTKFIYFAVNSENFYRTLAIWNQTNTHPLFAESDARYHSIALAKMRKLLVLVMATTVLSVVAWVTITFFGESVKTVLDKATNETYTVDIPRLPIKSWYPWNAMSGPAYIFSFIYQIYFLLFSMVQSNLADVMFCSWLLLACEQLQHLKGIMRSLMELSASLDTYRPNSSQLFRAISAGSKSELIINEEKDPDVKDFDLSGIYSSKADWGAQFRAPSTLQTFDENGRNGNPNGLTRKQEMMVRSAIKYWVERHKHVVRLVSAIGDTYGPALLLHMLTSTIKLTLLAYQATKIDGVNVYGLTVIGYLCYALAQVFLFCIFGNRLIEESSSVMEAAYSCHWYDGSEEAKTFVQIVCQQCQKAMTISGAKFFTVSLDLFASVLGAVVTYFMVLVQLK
# Chain of OR10/OR7 (B5U0U7 entry or part of it): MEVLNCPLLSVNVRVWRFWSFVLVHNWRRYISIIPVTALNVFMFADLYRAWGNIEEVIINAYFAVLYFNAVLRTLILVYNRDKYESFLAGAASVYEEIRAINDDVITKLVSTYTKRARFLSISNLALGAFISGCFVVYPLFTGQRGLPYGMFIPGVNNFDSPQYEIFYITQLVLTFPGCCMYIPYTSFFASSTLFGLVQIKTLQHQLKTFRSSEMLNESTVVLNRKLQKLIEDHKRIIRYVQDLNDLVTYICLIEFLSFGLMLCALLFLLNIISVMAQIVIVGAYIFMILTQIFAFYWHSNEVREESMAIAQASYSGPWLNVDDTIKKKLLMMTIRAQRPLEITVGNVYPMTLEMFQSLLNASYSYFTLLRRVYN
Structure (SMILES),inhibition at 4 µM (OR10/OR7; compound applied at 4 μM) [%],inhibition at 4 µM (mOREG; compound applied at 4 μM) [%],inhibition at 4 µM ([1]; compound applied at 4 μM) [%],further results
Fc1ccccc1/C=N/Nc1nc(N2CCCCC2)nc(N2CCOCC2)n1 [RU-0018338],26 to 50,26 to 50,26 to 50,–
Cc1cc(C)c(Cn2ccnc2CN(C(=O)c2ccccc2F)C(C)C)c(C)c1 [RU-0048001],> 75,26 to 50,< 25,"IC50 (OR10/OR7; Table B, read-out: IC50 OR10): < 100 nM"
O=C(c1cccc(F)c1)N(Cc1c(-c2ccccc2)noc1N1CCCC1)CC1CCCO1 (stereo not drawn) [RU-0037434],26 to 50,26 to 50,26 to 50,–
O=C(c1ccco1)N(Cc1nccn1Cc1c(F)cccc1Cl)C1CC1 [RU-0048046],51 to 74,< 25,< 25,"IC50 (OR10/OR7; Table B, read-out: IC50 OR10): < 100 nM"
CCN(CC)c1onc(-c2ccc(F)cc2)c1CN(CCCOC)C(=O)c1ccc2c(c1)OCO2 [RU-0036983],26 to 50,26 to 50,26 to 50,–
COCCCN(Cc1c(-c2ccccc2)noc1N(C)C(C)C)C(=O)c1ccccc1OC [RU-0037003],< 25,26 to 50,26 to 50,–
Cc1ccccc1C(=O)N[C@@H]1CCCCC1NC(=O)C1CCCN(S(=O)(=O)c2cc(Cl)ccc2Cl)C1 (stereo partly drawn) [RU-0045691],26 to 50,26 to 50,< 25,–
C=CCNC(=O)C(NC(=O)c1cccc(C)c1)C1CCN(C(=O)c2cccc(Br)c2)CC1 (stereo not drawn) [RU-0039123],26 to 50,26 to 50,26 to 50,–
Cc1ccccc1C(=O)N[C@@H]1CCCCC1NC(=O)C1CCN(C(=O)c2cc(C(F)(F)F)cc(C(F)(F)F)c2)CC1 (stereo partly drawn) [RU-0045778],< 25,26 to 50,26 to 50,–
COc1ccccc1CC(=O)N1CCOC(COc2ccc(C)cc2)C1 (stereo not drawn) [RU-0050390],< 25,< 25,< 25,–
CCOC(=O)CCC(=O)N(CCc1ccccc1)CC(=O)Nc1cc(C(C)(C)C)nn1-c1ccccc1C [RU-0072462],26 to 50,< 25,< 25,–
CCN(CC)C(=O)Oc1ccc2c(ccn2Cc2ccccc2Cl)c1NC(=O)CCCCC(=O)OC [RU-0075446],–,–,–,IC50 (OR10/OR7): < 100 nM; inhibition at 4 µM (OR10/OR7): > 75%; inhibition at 4 µM (mOREG): < 25%; inhibition at 4 µM [1]: 26 to 50%
CCc1c(C(=O)NCc2cccnc2)cnn1-c1ccccc1 [RU-0048504],51 to 74,< 25,< 25,"IC50 (OR10/OR7; Table B, read-out: IC50 OR10): < 100 nM"
CCN(CC)C(=O)Oc1ccc2c(ccn2Cc2cccc(C)c2)c1NC(=O)CCCCC(=O)OC [RU-0075445],–,–,–,inhibition at 4 µM (OR10/OR7): < 25%; inhibition at 4 µM (mOREG): < 25%; inhibition at 4 µM [1]: < 25%
CCn1c(C)c(C(=O)CN(CC2CCCO2)C(=O)C2C[C@H]2c2ccccc2)c(C)c1C(=O)OC (stereo partly drawn) [RU-0071273],51 to 74,26 to 50,26 to 50,"IC50 (OR10/OR7; Table B, read-out: IC50 OR10): < 100 nM; IC50 (mOREG; Table B): 100 to 1000 nM"
Cc1nn(-c2ccc(Cl)cc2)c(C)c1C(=O)NCc1ccccn1 [RU-0048608],51 to 74,< 25,< 25,"IC50 (OR10/OR7; Table B, read-out: IC50 OR10): > 1000 nM"
O=C(Cc1cccc(F)c1)N1CCOC(COCc2c(Cl)cccc2Cl)C1 (stereo not drawn) [RU-0050398],< 25,< 25,< 25,–
COc1ccc(-n2c(Cc3ccccc3)nnc2SCCCC(=O)N2CCN(C(=O)c3ccc(C(F)(F)F)cc3)C(C)C2)cc1 (stereo not drawn) [RU-0071828],26 to 50,26 to 50,26 to 50,"IC50 (OR10/OR7; Table B, read-out: IC50 OR10): > 1000 nM"
Cc1ccccc1C(=O)N[C@@H]1CCCCC1NC(=O)C1CCN(C(=O)C23CC4CC(CC(C4)C2)C3)CC1 (stereo partly drawn) [RU-0045351],< 25,26 to 50,< 25,–
O=C(c1ccco1)N(Cc1nccn1Cc1ccccc1Cl)CC1CC1 [RU-0047281],> 75,26 to 50,> 75,"IC50 ([1]; Table B, read-out: IC50 5HT3): 100 to 1000 nM"
COc1ccccc1CCC(=O)N1CCC(CCC(=O)Nc2ccccc2)CC1 [RU-0032455],< 25,26 to 50,26 to 50,–
COc1cccc(NC(=O)CCC2CCN(C(=O)CSc3ccccc3)CC2)c1 [RU-0032474],< 25,< 25,< 25,–
